Source: patent publication US8865775B2, “Anti-inflammatory agent and cancer-preventive agent comprising canolol or prodrug thereof and pharmaceutical, cosmetic and food comprising the same” (priority 2004, dated 2014)

Assays:
[1] = system: gastric carcinoma in Mongolian gerbils; test: Suppression of gastric carcinogenesis in gerbils infected with H. pylori and treated with MNU; assay type: in vivo
From the text: They were divided into two groups: one was fed with AIN-93G diet for mice containing 0.1% of canolol (“canolol-fed group”); the other was fed with the same diet compositions without canolol. […] Ten gerbils per group were examined.
Thin slices obtained from the paraffin blocks were examined with HE (hematoxyline eosin) staining under microscope.

[2] = Half-life in the culture medium; assay type: physicochemical
From the text: (§1) At the inflammatory site, peroxynitrite (ONOO^−) is excessively generated as a result of inflammatory reaction, and toxic effect thereof to living cells is one of the cause of pathogenesis. It was anticipated that canolol would exert protective effects against said toxicity of ONOO^− to cultured cells.

[3] = system: Mongolian gerbils infected with Helicobacter pylori ATCC 43504; test: Suppression of gastritis in Mongolian gerbils infected with H. pylori and given MNU (pathology of excised stomach); assay type: in vivo; conditions: diet containing 0.1% canolol for 12 weeks; vs diet without canolol
From the text: (§2) The six-week old Mongolian gerbils were given drinking water with 10 ppm of MNU (a carcinogen N-methylnitrosourea) for one week followed by oral infection with Helicobacter pylori ATCC 43504 strain, or were orally infected with 1×10^8 CFU of H. pylori and 10 ppm of MNU were then given for one week. They were divided into two groups: one was fed with AIN-93G diet for mice containing 0.1% of canolol (“canolol-fed group”); the other was fed with the same diet compositions without canolol. The experiment was continued for up to 52 weeks (X. Cao et al, Jpn. J. Cancer Res., 93, 1293-1298 (2002), N. Shimizu, et al, Cancer Res., 60, 1512-1514 (2000)). Ten gerbils per group were examined.

[4] = system: 8-oxodeoxyguanosine (8-OHdG); test: 8-OHdG production in gastric specimens, fluorescent antibody staining; assay type: in vivo, Mongolian gerbils; conditions: after 12 weeks
From the text: as §2
(§3) 8-OHdG is one of the markers of inflammatory disorders that are generated as a result from a reaction of reactive oxygen species with DNA, said reactive oxygen species being derived from inflammatory cells in vivo. The amount of 8-OHdG produced was studied under similar conditions as Example (1) using a conventional fluorescent antibody staining method with the anti-8-OHdG antibody against excised gastric specimens of each group after 12 weeks.

[5] = system: Helicobacter pylori; test: H. pylori count in mid-stomach tissues of infected gerbils; assay type: in vivo; conditions: after 12 weeks
From the text: as §2, §3

[6] = system: stomach tissues of gerbils infected with H. pylori; test: Infiltration of neutrophils and hyperplasia in stomach tissues, hematoxylin-eosin staining; assay type: in vivo, Mongolian gerbils; conditions: 12 weeks
From the text: as §2
Specimens of Example (1) were prepared 12 weeks after administration. Stomach specimens were prepared and examined under microscope after conventional hematoxylin-eosin staining.

[7] = system: cycloxygenase-2 (COX-2); test: Induction of COX-2 in gastric lesions infected with H. pylori, immunostaining; assay type: in vivo, Mongolian gerbils; conditions: immunostaining quantification, 12 weeks, n = 10
From the text: as §2
(§4) The expression levels of both enzymes were quantified by means of enzyme antibody using the specimens of Example (1) prepared 12 weeks after administration according to Example (2) . Both COX-2 and iNOS induced during inflammation are typical enzymes to onset an inflammation reaction. Namely, COX-2 produces prostanoid inflammatory mediators such as prostaglandin E2, and iNOS produces nitric oxide (NO), where these mediators and NO evokes inflammation. Both superoxide (O2^−) and NO produced at the site of inflammation immediately react with each other and form more reactive peroxynitrite (ONOO^−) (described later).

[8] = system: inducible form of NO synthase (iNOS); test: Induction of iNOS in gastric lesions infected with H. pylori, immunostaining; assay type: in vivo, Mongolian gerbils; conditions: immunostaining quantification, 12 weeks, n = 10
From the text: as §2, §4

[9] = system: NO production from macrophages; test: Suppression of NO production from LPS + IFN-γ treated peritoneal macrophages (Gries method); assay type: cell-based, BALB/c mice; conditions: LPS 1 μg/ml + IFN-γ 0.1 μg/ml, 24 hours
Description: Next, the inflammatorily exuded peritoneal macrophages were treated with bacterial (E. coli) lipopolysaccharide (LPS) (1 μg/ml) and interferon-γ (0.1 μg/ml) in vitro, then the amount of NO, the inflammatory mediator released from the macrophages, was quantified as NO3^−+NO2^− by a conventional method (Gries method) [Stuehr D J, et al, J. Exp. Med., 169, 1543-55 (1989)] (FIG. 4). That is, to the 6-week old female BALB/c mice (SPF), 10% proteose peptone (1 ml) was injected intraperitoneally. The exuded peritoneal macrophages were collected by peritoneal puncture using a needled syringe, centrifuged in the presence of 10% heat-inactivated fetal calf serum and washed. The peritoneal macrophages (1×10^5/well), LPS (1 μg/ml), interferon-γ (IFN-γ) (0.1 μg/ml) and variable doses of canolol (5, 12.5, 25, 50, 100 μM) were plated in the plastic microplate (96-well) (Sumitomo Bakelite, Cat. #MS-8096F), and allowed to incubate for 24 hours at 37° C., under 5% CO2 and 95% air. Then, nitrite and nitrate ions in the supernatant were quantified by the Gries method. The culture medium used for the macrophages was RPMI-1640 containing 10% of heat-inactivated fetal calf serum. As control groups, LPS alone, and LPS+IFN-γ without canolol were used. The vertical axis of FIG. 4 indicates the total amount of nitrate and nitrite ions.

[10] = system: peritoneal macrophages; test: Effect on survival of macrophages; assay type: cell-based, BALB/c mice
[11] = system: human embryonic kidney epithelial cells HEK 293; test: Neutralization of peroxynitrite (SIN-1) toxicity to cultured cells, MTT method; assay type: cell-based; conditions: SIN-1 100 μM, HEK 293, MTT
From the text: as §1

[12] = system: Salmonella typhimurium TA102; test: Suppression of ONOO- induced mutant colony formation (modified Ames medium); assay type: cell-based; conditions: 8 μM canolol; ONOO- at or above 4 μM
Description: 1×10^8 CFU of Salmonella typhimurium TA102 was taken into a beaker under sterile condition, then ONOO^− was continuously infused under stirring to make a predetermined concentration of ONOO^− between 1-800 μM. (FIG. 7A). An aliquot of S. typhimurium at each time point was removed to a petri dish containing modified Ames medium which permits selective growth of only mutant strains, and was cultured. […] The mutant colonies were formed progressively at or above 4 μM of ONOO^−, while they were not formed with addition of 8 μM canolol.

[13] = Hp + MNU, number of gerbils, after 57 weeks
[14] = mid-stomach tissue, 0.1% canolol diet

Cc1cc(C(C)(C)C)c(O)c(C(C)(C)C)c1 [BHT, 2,6-di-tert-butyl-4-methylphenol]
Incidence of carcinoma, Frequency (%) ([1]; Hp + MNU, after 57 weeks): (39.4) %
Incidence of carcinoma, Frequency (gerbils with carcinoma/group) ([1]; Hp + MNU, after 57 weeks): 13/33
Incidence of carcinoma, Differentiation [1, 13]: 11
Incidence of carcinoma, Undifferentiation [1, 13]: 2
Rate of suppression (%) ([1]; Hp + MNU, vs group I (Hp + MNU), after 57 weeks): 6.5%

Cl.N=c1c[n+](N2CCOCC2)[n-]o1 [SIN-1, 3-(4-morpholinyl) sydnonimine HCl]
half-life [2]: 6 h

C=Cc1cc(OC)c(O)c(OC)c1 [canolol, 4-vinyl-2,6-dimethoxyphenol]
inflammation of gastric epithelium [3]: markedly suppressed
8-OHdG production in vivo [4]: exerted suppressive activity
Amount of 8-OHdG (ratio) [4, 14]: 19.6 ± 5.5 ratio
antibacterial activity ([5]; in vivo, gerbil stomach): did not show any antibacterial activity
H. pylori count (CFU) [5, 14]: 4.42 ± 0.2 CFU
gastritis in both gastric antrum and corpus [6]: significantly suppressed
Hyperplasia, Gastric antrum ([6]; n = 10): 1.2 ± 0.6
Hyperplasia, Gastric corpus ([6]; n = 10): 0.7 ± 0.2
Neutrophil infiltration, Gastric antrum ([6]; n = 10): 1.2 ± 0.4
Neutrophil infiltration, Gastric corpus ([6]; n = 10): 0.9 ± 0.2
COX-2, Gastric antrum [7]: 0.9 ± 0.2
COX-2, Gastric corpus [7]: 0.6 ± 0.2
iNOS, Gastric antrum [8]: 0.9 ± 0.1
iNOS, Gastric corpus [8]: 0.5 ± 0.1
effective concentration [9]: 10 to 100 µM
toxicity to macrophages (survival) ([10]; at 100 μM): essentially non-toxic
cytotoxic concentration ([10]; macrophages): ≥ 800 µM
concentration that significantly neutralized the toxicity of ONOO- [11]: 12.5 to 50 µM
suppression of the cancer incidence ([1]; 0.1% canolol vs without canolol): 64%
cancer incidence ([1]; gerbils fed with 0.1% canolol, around 57 weeks): 15%
mutant colony formation by ONOO- [12]: not formed
